Data: patent US11969499B2, “Hydrogel delivery of sting immunotherapy for treatment cancer” (WILLIAM MARSH RICE UNIVERSITY, priority 2017, dated 2024)
“Also recorded” adds a separate entry of the source. Like-named read-outs stand apart in the source and are kept apart here.

Legend:
[1] = system: MOC2-E6E7 cells; assay: In vitro live/dead cell viability in unloaded and CDN-loaded MDP hydrogel; type: cell-based; settings: for percent cell viability per mm3 of hydrogel vs no CDN / percent cell viability per mm3 of hydrogel: Day 7; for cytocompatibility of unloaded hydrogel: no CDN, cells in 3-D gel, up to 7 days
Procedure: Preparation of cell—laden hydrogel for in vitro viability. MDP gel formulations with MOC2-E6E7 cells were prepared by diluting a cell suspension of 2,000,000 cells/mL in 2×HBSS with an equal volume of 4×CDN. The resulting suspension was then added to an equal volume of sterile 2 wt. % peptide in 298 mM sucrose and mixed to produce final samples of approximately 35,000 cells per 70 μL of 1 wt. %, 149 mM sucrose gel. Gels were then transferred into 0.4 cm 2 wells of Lab-Tek 16 well glass chamber slides (Thermo Fischer, Rochester, NY), pipetted to produce 70 μL pucks with flat profiles. Samples were allowed to shear recover for 5-10 mM before adding 200 μL cell media on top of each gel. The cell media was changed every 2 days, taking care to not dislodge the hydrogel material.
Cell viability was determined at each desired time point by performing live/dead assays as described below. Live/dead staining solution was prepared in DPBS with 2 μM Calcein AM for live cells (Life Technologies), 4 μM Ethidium homodimer for dead cells (Life Technologies), and 5 μg/mL Hoechst 33342 for nuclei (MP Biomedicals, Solon, OH). […] Cell media was removed and the gels were washed with PBS. Samples were then stained with 100 μL of prepared solution by incubating at RT for 15-30 mM. Following staining, gels were placed in PBS for immediate analysis by confocal microscopy. Gels were analyzed by z-stack imaging (100 μm) using a Nikon A1 Confocal Microscope with 20× air and 40× water objectives (405 nm blue channel laser, 488 nm green channel laser, 561 nm red channel laser). Image processing was done using NIS Elements, and live/dead cell counting was performed using the cell identification tool in Imaris 3D/4D Image Processing software, manually verified with nuclear counts when resolution allowed.

[2] = system: MOC2-E6E7 tumors; assay: Tumor growth and survival study (Examples 3-4); type: in vivo, C57BL/6 mice
Procedure: Tumor growth and survival study. For tumor experiments, 6-8 week old wild-type C57BL/6 female mice were maintained in a pathogen-free environment for the study. All protocols were in accordance with the guidelines for humane treatment of laboratory animals by the National Institutes of Health, the Animal Welfare Committee and the Center for Laboratory Animal Medicine and Care (CLAMC) at the University of Texas Health Science Center at Houston. Mice were injected with MOC2-E6E7 tumor cells on day 0 into the maxillary oral vestibule (30,000 cells in 30 μL volume), followed by controls or gel injections loaded with or without CDN on day 3 in the same oral cavity location (20 lag CDN per 30 μL injection). Tumor growth was measured using calipers and body weight was taken in all subjects two to three times per week. Photographs were also obtained. Kaplan-Meier survival and tumor growth curve analyses were performed from data obtained. Mice that maintained tumor clearance for 100 days were re-challenged with MOC2-E6E7 tumor cells again at day 105 and monitored similarly. All endpoints in tumor growth curve and survival data are a result of euthanasia due to excessive tumor burden, defined as tumor reaching 12 mm, tumor ulceration, or a weight loss of greater than 20%. The inventors observed no signs of unexpected disease or discomfort in the mice over the course of the experiments.
Statistical methods. Statistical analyses for Kaplan-Meier survival curves were performed using the log-rank/Mantel-Cox test with GraphPad Prism (GraphPad, San Diego, CA). For tumor growth curves, the Wilcoxon rank sum test was used to compare tumor size between STINGel and other groups. No adjustment for multiple testing was made because the study is novel and exploratory. All p values are two-sided and p values less than 0.05 were considered as significant. All statistical analyses were performed using the SAS software (version 9.4, the SAS Institute, Cary, NC).

[3] = system: MOC-2-E6E7 tumors; assay: MOC-2-E6E7 orthotopic murine model of HNSCC, survival (Example 2, FIG. 2E); set-up: species or system C57BL/6 mice; settings: mouse, in vivo
Procedure: MOC-2-E6E7 Orthotopic murine model of HNSCC. 6 week-old male and female C57BL/6 mice will be inoculated in the left maxillary vestibule with MOC-2-E6E7 cells (30,000 cells in 30 μl volume). Animals will be monitored using a body condition scoring system to ensure they maintain a healthy weight and show no obvious signs of distress. At Day 14 post-tumor inoculation, STINGel (20 jug CDN in 30 μl of MDP hydrogel) or controls (as above) are injected into the oral tumor site. Animal studies will be done in triplicate, independent experiments for significance. Between-group differences in flow cytometric data will be statistically evaluated with one-way ANOVA and post-hoc analysis using Tukey's method. Differences between groups will be considered significant if p<0.05. In efficacy studies, Kaplan-Meier survival curves will be compared using the log-rank/Mantel-Cox test and tumor growth curves will be analyzed using the Koziol method (Koziol et al., 1981; 1982).

[4] = system: non-T cell-inflamed head and neck tumors; settings: in vivo; cited from earlier work
[5] = system: MOC1 tumors; settings: multiple intratumoral injections of CDN alone, cited from earlier work
[6] = system: MOC2 tumors; settings: multiple CDN injections; cited from earlier work
[7] = CDN drug release kinetics from hydrogels (UV absorbance at 259 nm); type: physicochemical; settings: for CDN release compared to collagen (FIG. 5B): 30 μL gels, 910 μM CDN, under 200 μL HBSS, 24 h; for release profile of gels (FIG. 3A): CDN release, preliminary data
Procedure: CDN release kinetics. 30 μL CDN-loaded gel aliquots are deposited into 96 well plates with 200 μL of buffer added to the top of the gels at time point t=0. For all kinetics experiments, a Thermo Scientific Nanodrop 2000C Spectrophotometer is used to measure UV absorbance at 259 nm, the characteristic wavelength of maximum absorbance for the adenine nucleobases present in the CDN. See FIG. 1A for an example of preliminary release kinetics data.
CDN drug release kinetics. To study the kinetics of CDN release from STINGel vs. collagen gel, 30 μL CDN-loaded gel aliquots were deposited into Falcon® 96 well flat bottom polystyrene plates (Becton Dickinson Labware, Franklin Lakes, NJ). For each experiment, cylindrical pucks of the 30 μL gel aliquots were created in each well, allowing the pipetted gels to shear recover for at least 5 mM before adding 200 μL of buffer (1×HBSS for STINGel, lx DPBS for collagen, according to gelation requirements) to the top of the gels at what was defined as t=0 for the start of kinetics experiments. The buffer height was approximately 2.5 mm, the gel thickness approximately 0.5 mm, and the gel's solvent exposed surface area approximately 12.6 mm^2.
A Thermo Scientific Nanodrop 2000C Spectrophotometer was used to measure UV absorbance at 259 nm, the characteristic wavelength of maximum absorbance for the CDN's adenine nucleobases. An extinction coefficient of 24,000 M^−1 cm^−1 at 259 nm was used. Absorbance measurements were taken by removal of 1 μL aliquots from the surface of the buffers, measuring the increase in absorbance over time. Release of CDN was measured over the course of the first 24 hours and converted to total percent released, with additional measurements also made at 48 and 72 hours to confirm that the samples had reached equilibrium.

[8] = In vivo subcutaneous hydrogel implants, histology (Masson's trichrome, H&E); settings: 910 μM CDN where loaded
Procedure: In vivo subcutaneous implants. 200 μL subcutaneous injections are made in two separate 1-inch spaced sites on the dorsal flank. At tested time points mice are euthanized and the dorsal skin around the entire implant is removed, washed with PBS, and fixed in formalin for 24 hours prior to tissue processing (Wellings & Atherton, 1997; Guy & Fields, 1997). Details are provided in the Vertebrate Animal section. Tissue is processed to paraffin blocks, sectioned at 7 μm, deparaffinized and stained for cellular infiltrate using hematoxylin and eosin (H&E) and Masson's Trichrome. Here, and elsewhere, male and female populations will be assessed combined as well as separately to determine if sexual dichotomy exists in the biomaterial interaction and regenerative response.
Subcutaneous experiments and histology. Male/female mice (C57BL/6 strain) of age 8-12 weeks were obtained for subcutaneous experiments, which were conducted with Rice IACUC approval and according to NIH guidelines. Mice were injected with 40 μL CDN-loaded hydrogel (910 μM CDN) or 100 μL unloaded hydrogel in each of four separate sites in the subcutaneous space of the dorsal flank. At days 3 and 7 the mice were euthanized and the dorsal skin around the entire implant was removed, fixed overnight in 10% neutral buffered formalin, processed and paraffin embedded by the Baylor College of Medicine Pathology Core, and finally sectioned at 5 μm thickness for Masson's trichrome staining and hematoxylin and eosin (H&E) staining (FIGS. 14A-F and 16A-F).

[9] = system: CD45+/CD11b+/CD11c+ dendritic cells; assay: Flow cytometric analysis of implant infiltration; type: in vivo, mice; settings: for recruitment of immune cells to the hydrogel in vivo: subcutaneous flank of mice, within 3 days
Procedure: Flow cytometric analysis of implant infiltration. Implanted gels are harvested from mice, digested and processed into single cell suspension. Cells are incubated with blocking antibody, followed by addition of antibodies to create three panels: myeloid cells (CD45, Gr-1, Ly-6C, CD11b, F4/80), lymphoid cells (CD45, NK-1.1, CD11b, CD3e, CD8a, CD4, CD19) and dendritic cells (CD45, CD8a, CD11b, CD11c, PDCA-1 and CD103). For each time point five mice with two hydrogel boluses are assessed for an n of 10.

[10] = 30 μL gels loaded with 910 μM CDN under 200 μL buffer

Question: With `Nc1ncnc2c1ncn2[C@@H]1O[C@@H]2COP(O)(=S)O[C@@H]3C(O)[C@@H](COP(O)(=S)O[C@H]2[C@H]1O)O[C@H]3n1cnc2c(N)ncnc21` (stereo partly drawn) [CDN, dithio-(RP,RP)-[cyclic[A(2′,5′)pA(3′,5′)p]]] as the compound, how does the “percent cell viability per mm3 of hydrogel vs no CDN” value ([1]; 5 μM CDN) read?
Answer: equivalent

Question: And the “percent cell viability per mm3 of hydrogel vs no CDN” value ([1]; 57 μM CDN)?
Answer: equivalent

Question: What about the “percent cell viability per mm3 of hydrogel vs no CDN” value ([1]; 114 μM CDN) of the same compound?
Answer: equivalent

Question: And the “percent cell viability per mm3 of hydrogel” value ([1]; 228 μM CDN)?
Answer: reduced cell viability

Question: And the “percent cell viability per mm3 of hydrogel” value ([1]; 455 μM CDN)?
Answer: no cell viability

Question: What about the “percent cell viability per mm3 of hydrogel” value ([1]; 910 μM CDN) of the same compound?
Answer: no cell viability

Question: And the “max tolerable dose cells can experience in their local environment” value ([1]; without the massive cell death observed at 455 μM and above)?
Answer: 228 µM

Question: And the “mice surviving until the endpoint of the study” value ([2]; 140 days post-tumor cell inoculation, single injection day 3, 20 μg CDN in 30 μL, n=10)?
Answer: 10%

Question: What about the “effect on tumor growth” value ([2]; single injection day 3 post inoculation) of the same compound?
Answer: ineffective in preventing tumor growth

Question: And the “mortality before day 60” value [3]?
Answer: 100%

Question: What about the efficacy [4] of the same compound?
Answer: completely ineffective

Question: And the “efficacy / tumor rejection” value [5]?
Answer: only to a subset of MOC1 tumor rejection

Question: What about the “efficacy / tumor rejection” value ([5]; listed as CDN alone) of the same compound?
Answer: minimal efficacy

Question: And the tumor rejection [6]?
Answer: unsuccessful MOC2 tumor rejection

Question: What does the source list for “E2(SL)6E2 (SEQ ID NO: 3) (EESLSLSLSLSLSLEE) [additional multidomain peptide hydrogel with glutamate termini]”?
Answer: CDN release compared to collagen (FIG. 5B) [7]: better (slower) release compared to collagen; release profile of gels (FIG. 3A) [7]: intermediate release rates

Question: Which results are given for “K2(SL)6K2 (SEQ ID NO: 1) (Ac-KKSLSLSLSLSLSLKK-NH2) [MDP gel, self-assembling multidomain peptide hydrogel, acetylated N-terminus and C-terminal amide]”?
Answer: decrease in release rate compared to collagen control gels, factor [7, 10]: 8; maximum release of loaded CDN (plateau/equilibrium) [7, 10]: approximately 68%; release rate in the initial linear release phase [7, 10]: 1.0 nmol CDN/hour; time of CDN release until equilibrium with surrounding buffer [7, 10]: 14 to 15 h; release profile of gels (FIG. 3A) [7]: intermediate release rates; cytocompatibility of unloaded hydrogel ([1]; listed as Lys-MDP): substantial MOC-2-E6E7 proliferation (green cells) & minimal cell death; cytocompatibility of unloaded hydrogel ([1]; listed as MDP hydrogel): not intrinsically toxic; cytocompatibility of unloaded hydrogel ([1]; listed as unloaded MDP gel): fully biocompatible; cytocompatibility of unloaded hydrogel ([1]; listed as unloaded MDP hydrogel): cells are able to survive and proliferate within the 3-D hydrogel matrix; cellular infiltration of implant ([8]; 3 days post subcutaneous injection, listed as MDP control): even infiltration of cells; cellular infiltration of implant ([8]; 3 days post subcutaneous injection, listed as MDP unloaded control): even infiltration of cells; cellular infiltration of implant ([8]; 3 days post subcutaneous injection, listed as unloaded MDP): Uniform cellular infiltration; cellular infiltration of implant ([8]; 7 days post subcutaneous injection): even infiltration of cells; recruitment of immune cells to the hydrogel in vivo ([9]; listed as Lys-MDP): substantial population; recruitment of immune cells to the hydrogel in vivo ([9]; listed as MDP hydrogel): robust recruitment of immunocytes; CD45+/CD11b+/CD11c+ dendritic cells ([9]; three days after subcutaneous injection, un-loaded): 13.5%; mice maintaining tumor clearance and reaching reinoculation point ([2]; day 105 after initial inoculation, n=10 per group): No mice; mortality before day 60 [3]: 100%

Question: Which results are given for “R2(SL)6R2 (SEQ ID NO: 4) (RRSLSLSLSLSLSLRR) [additional multidomain peptide hydrogel with arginine termini]”?
Answer: CDN release compared to collagen (FIG. 5B) [7]: better (slower) release compared to collagen; also recorded: the best of the group; release profile of gels (FIG. 3A) [7]: slowest, most prolonged release
